Source: PubChem BioAssay (NCI)
Several values for one entry are separate records, joined by “and”; a condition that tells them apart may be missing. Equal entries are not always repeated.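 Assay format: 96-well plates, 48-hour exposure. GI50: concentration for 50% inhibition of growth. The concentration for full growth arrest is given as TGI.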

What was measured:
Test in all cases: NCI-60 cell line screen, 48 h
[1] = system: A549 NSCLC
[2] = system: COLO 205 colon
[3] = system: HCT-116 colon
[4] = system: HCT-15 colon
[5] = system: HT29 colon
[6] = system: IGROV1 ovarian
[7] = system: NCI-H460 lung
[8] = system: OVCAR-8 ovarian
[9] = system: SF-268 CNS
[10] = system: UACC-257 melanoma

SMILES | GI50 [1] | TGI [1] | GI50 [2] | TGI [2] | GI50 [3] | TGI [3] | GI50 [4] | TGI [4] | GI50 [5] | TGI [5] | GI50 [6] | GI50 [7] | TGI [7] | GI50 [8] | TGI [8] | GI50 [9] | TGI [9] | GI50 [10] | TGI [10] | TGI [6]
CCOC(=O)c1cnc(SCc2ccc(Cl)c(Cl)c2)nc1N1CC1 | 3.72 µM | 16.1 µM | 2.9 µM | 13.2 µM | 0.9 µM | 10.9 µM | 1.31 µM | 14.4 µM | 2.7 µM | 12.2 µM | 2.2 µM | 2.88 µM | 7.66 µM | 3.6 µM | 30.2 µM | 3.05 µM | 12.2 µM | 4.78 µM | 19.8 µM | 
CCCCCCCCCCCCc1ccc(C(=O)/C=C/C(=O)O)cc1 | 13.8 µM | 30.7 µM | 1.83 µM | 3.84 µM | 1.54 µM | 3.39 µM | 1.71 µM | 3.45 µM | 1.81 µM | 4 µM | 1.95 µM | 10.8 µM | 27.1 µM | 3.44 µM | 12.9 µM | 2.64 µM | 8.28 µM | 3.79 µM | 15.2 µM | 3.86 µM
CCOC(=O)CCC(NC(=O)c1ccc(N=Cc2nc3cc(C(F)(F)F)ccc3nc2-c2ccccc2)cc1)C(=O)OCC (centres undefined) | > 100 µM | 50 µM and > 100 µM | > 100 µM | 50 µM and > 100 µM | 44.7 µM | 19.4 µM and > 100 µM | > 100 µM | > 100 µM | > 100 µM | > 100 µM | > 100 µM | > 100 µM | 50 µM and > 100 µM | > 100 µM | 27.4 µM and > 100 µM | 22.9 µM | 31.8 µM and > 100 µM | > 100 µM | > 100 µM | 50 µM and > 100 µM
CCCCOC(=O)C(=O)C(CC(C(=O)Cc1ccccc1)c1ccccc1)C(=O)C=C(C)C (centres undefined) |  | > 100 µM |  | > 100 µM |  | > 100 µM |  | > 100 µM |  | > 100 µM |  |  | > 100 µM |  | > 100 µM |  | > 100 µM |  | > 100 µM | > 100 µM
COc1cc(CCc2cc(NC(=O)c3ccc(N4C[C@@H](C)N[C@@H](C)C4)cc3)n[nH]2)cc(OC)c1 | > 10 µM and 3.9 µM | > 10 µM and 15.3 µM | 3.58 µM and 3.61 µM | > 10 µM and 11.5 µM | 3.79 µM and 3.49 µM | > 10 µM and 13.1 µM | > 10 µM and 9.71 µM | > 10 µM and 23.6 µM | 3.86 µM and 3.33 µM | > 10 µM and 13.3 µM | 2.93 µM and 4.59 µM | 6.39 µM and 4.16 µM | > 10 µM and 14.8 µM | > 10 µM and 9.01 µM | > 10 µM and 25.7 µM | > 10 µM and 5.88 µM | > 10 µM and 20.7 µM | > 10 µM and 2.08 µM | > 10 µM and 5.31 µM | > 10 µM and 19.8 µM
O=[N+]([O-])c1ccc(Sc2ncccn2)c([N+](=O)[O-])c1 | 3.95 µM | 14.2 µM | 3.11 µM | 10.8 µM | 3.43 µM | 11.8 µM | 2.67 µM | 11.1 µM | 3.39 µM | 12.9 µM | 1.27 µM | 6.78 µM | 24.1 µM | 4.33 µM | 14 µM | 5.08 µM | 19.6 µM | 5.33 µM | 19.1 µM | 13.6 µM
